{"source": "patent US20170035806A1", "about": "“COMPOSITION FOR PROPHYLAXIS AND TREATMENT OF BONE DISORDERS” (Chemische Fabrik Budenheim KG, priority 2014, published 2017)", "type_in_all_cases": "cell-based, Human", "key": {"SaOS-2 cells [1]": {"system": "SaOS-2 cells", "test": "HA mineralization with LaCl3 / polyP, Alizarin Red S OD 570 nm (FIG. 5, 6)", "experimental": "The cells were grown for 4 days in the absence of the activation cocktail (AC) and then for further 7 days (i) in the absence or (ii) in the presence of the activation cocktail with increasing concentrations of LaCl3 without (A) or with (B) 50 μM polyP (polyP•La complex). At the end of the incubation period, HA mineralization was determined by incubation of the cultures with Alizarin Red S in the spectrophotometric assay. […] The OD values at 570 nm measured in the spectrophotometric assay in the absence of the activation cocktail had been subtracted from the OD values at 570 nm measured in the presence of the activation cocktail, and the HA formation in the absence of LaCl3 and polyP (FIG. 5 A) was set to 100%.\nThe data shown in FIG. 5 had been normalized by the number of cells which had been determined in parallel assays. […] The HA formation in the absence of LaCl3 and polyP (FIG. 6 A) was set to 100%.\nSimilar results were obtained if the values were normalized by cell number (FIG. 6)."}, "SaOS-2 cells [2]": {"system": "SaOS-2 cells", "test": "Number of SaOS-2 cells per well (FIG. 3)", "conditions": "for effect on number of SaOS-2 cells per well: polyP 50 μM where present", "experimental": "Only at a very high concentration, LaCl3 caused a strong drop of SaOS-2 cell number.\n(§1) Human osteogenic sarcoma SaOS-2 cells are cultured in McCoy's medium (Biochrom, Berlin; Germany) containing 5 mM Na-phosphate and 1 mM CaCl2, supplemented with 15% heat inactivated fetal calf serum (FCS), Na-pyruvate (1 mM), Ca(NO3)2 (0.5 mM), penicillin (100 U/ml), and streptomycin (100 μg/ml), in 6-well plates (surface area 9.46 cm^2; Orange Scientifique, Braine-l'Alleud; Belgium) in a humidified incubator at 37° C. and 5% CO2. Routinely, 2×10^4 cells are added per well (total volume 3 ml)."}, "SaOS-2 cells [3]": {"system": "SaOS-2 cells", "test": "SEM analysis of HA nodules", "conditions": "5 μM, activated cultures, 5 days", "experimental": "In this assay Me was Gd. 5 μM of each compound were added to the cells, and the cells were analysed by SEM. The cell cultures were incubated for 5 days either (A) in the absence or (B) in the presence of the activation cocktail. (C) and (F) show incubation of the activated cells with MeCl3; (D) and (G) show incubation of the activated cells with polyP, and (E) and (H) show incubation of the activated cells with polyP•Me. Some nodules (no) and cell layers (c) are marked.\nTo assure that the increased Alizarin Red S staining is due to a higher HA (Ca-phosphate) deposition SEM analyses were performed. In the absence of the activation cocktail no nodules could be identified on the cells (FIG. 7A). In contrast, if the cells were incubated with the cocktail for 5 days, distinct HA nodules could be identified (FIG. 7B). In the presence of the activation cocktail the cultures were incubated with MeCl3 (FIG. 7C), polyP (FIG. 7D), or both components together, as polyP•Me (FIG. 7E). It is apparent that the density of the nodules in activated cultures incubated with MeCl3 or with polyP alone was lower, compared to polyP•Me. At higher magnification it could be observed that the nodules consisted of irregularly arranged prism-like nanorods (FIGS. 7F to H). […]"}, "SaOS-2 cells [4]": {"system": "SaOS-2 cells", "test": "HA mineralization, Alizarin Red S staining and spectrophotometric assay (FIG. 4)", "conditions": "5 μM, Me = Gd", "experimental": "In this assay Me was Gd. The cells were incubated with 5 μM of each of the compounds. FIG. 4 A: The cells were grown for 7 d in the (a) absence or (b) presence of activation cocktail (AC=50 μM ascorbic acid, 10 nM dexamethasone and 1 mM β-glycerophosphate). In separate experiments the cultures were incubated with the activation cocktail and additionally with (c) MeCl3, (d) polyP, or (e) polyP•Me. After incubation, the cell assays were stained with Alizarin Red S to assess the degree of […]. The diameter of the wells was 15 mm. FIG. 4 B: To quantitatively determine the HA mineralization in SaOS-2 cells, the cultures were assayed at the end of the incubation with Alizarin Red S (AR) in the spectrophotometric assay. […]\nThe intensity of the Alizarin Red colorimetric reaction at the used concentration range is proportional to the extent of mineralization (HA formation), as determined by using a calibration curve. The values measured (given in nmoles of Alizarin Red S bound) were normalized to the total amount of DNA (given in μg) which is proportional to cell number (the amount of DNA per cell is assumed to remain constant during the experiment). […]\nThe influence of trivalent cations on the extent of mineralization of SaOS-2 cells was determined in vitro using McCoy's medium/10% FCS and applying Alizarin Red S as a dye to monitor HA formation. […]"}, "SaOS-2 cells [5]": {"system": "SaOS-2 cells", "test": "MTT colorimetric proliferation/viability assay", "conditions": "tested concentration range of 0.3 to 30 μM; Me = Gd", "experimental": "In this assay Me was Gd. The recordings of developed formazan dye in the control (filled bar) were set to 100%. The results are expressed as means (n=10 experiments each)±SEM.\nThe effects of polyP•Me as well as of the single components polyP and MeCl3 on proliferation/viability of SaOS-2 cells were determined by applying the MMT colorimetric assay (MMT=3-(4,5-dimethylthiazol-2-yl)-2,5-diphenyltetrazolium bromide).\nas §1\nSaOS-2 cells are seeded at a density of 2×10^4 cells per 3-ml well in a 24-multi-well plate (Orange Scientifique) and cultured for 3 days in McCoy's medium/15% FCS. Increasing concentrations of MeCl3, polyP or polyP•Me are added to the cultures. After incubation, cell proliferation is determined applying the colorimetric method based on the tetrazolium salt […]."}, "BMP2": {"system": "BMP2", "test": "qRT-PCR BMP2 gene expression", "conditions": "5 μM"}}}
{"smiles": "[Cl][La]([Cl])[Cl]", "note": "[LaCl3]", "values": [{"measurement": "HA formation", "setting": "SaOS-2 cells [1]; 0.05 mM LaCl3, absence of polyP, activation cocktail 7 days", "value": "marked increase"}, {"measurement": "stimulatory effect on HA formation", "setting": "SaOS-2 cells [1]; LaCl3 0.5 mM and higher, absence of polyP", "value": "not observed any more"}, {"measurement": "effect on number of SaOS-2 cells per well", "setting": "SaOS-2 cells [2]; 0.05 mM to 1 mM LaCl3", "value": "did not significantly affect"}, {"measurement": "effect on SaOS-2 cell number", "setting": "SaOS-2 cells [2]; very high concentration of LaCl3", "value": "strong drop"}]}
{"smiles": "[Cl][Gd]([Cl])[Cl]", "note": "[MeCl3, GdCl3]", "values": [{"measurement": "density of HA nodules compared to polyP•Me", "setting": "SaOS-2 cells [3]", "value": "lower"}, {"measurement": "Alizarin Red S bound normalized to total DNA (HA mineralization)", "setting": "SaOS-2 cells [4]; 7 days after the addition of the activation cocktail", "value": "0.61 ± 0.08", "unit": "nmol/µg"}, {"measurement": "Alizarin Red S staining intensity / HA formation", "setting": "SaOS-2 cells [4]; in the presence of the activation cocktail, 7 d", "value": "intensified the staining intensity"}, {"measurement": "viability/proliferation of SaOS-2 cells (development of the dye formazan)", "setting": "SaOS-2 cells [5]", "value": "did not change"}, {"measurement": "BMP2 expression level versus day 5", "setting": "BMP2; 7 days", "value": "remained unchanged"}, {"measurement": "increase in steady-state expression of BMP2", "setting": "BMP2; day 5, normalized to GAPDH", "value": 1.4, "unit": "fold"}]}
{"smiles": "[Cl][Al]([Cl])[Cl]", "note": "[AlCl3]", "values": [{"measurement": "effect on number of SaOS-2 cells per well", "setting": "SaOS-2 cells [2]; 0.1 mM AlCl3 and higher", "value": "strong reduction"}]}
